Reference: patent US10071095B2, “1,2,4-triazolo [4,3-A] pyridine derivatives and their use for the treatment of neurological and psychiatric disorders” (JANSSEN PHARMACEUTICALS, INC., priority 2009, dated 2018)

Biological target: T1, human mGluR2 receptor (Homo sapiens, UniProt Q14416)
T1 construct: expressed in transfected cells; host or cells: CHO cells
Assay: [35S]GTPγS binding assay, positive allosteric modulation (GTPγS-PAM) in presence of EC20 glutamate
Type: biochemical
Conditions: in presence of glutamate at EC20, average pEC50 if more experiments, ‡ means tested once
Experimental: [^35S]GTPγS Binding Assay
The [^35S]GTPγS binding assay is a functional membrane-based assay used to study G-protein coupled receptor (GPCR) function whereby incorporation of a non-hydrolysable form of GTP, [^35S]GTPγS (guanosine 5′-triphosphate, labelled with […] ^35S), is measured. The G-protein α subunit catalyzes the exchange of guanosine 5′-diphosphate (GDP) by guanosine triphosphate (GTP) and on activation of the GPCR by an agonist, [^35S]GTPγS, becomes incorporated and cannot be cleaved to continue the exchange cycle (Harper (1998) Current Protocols in Pharmacology 2.6.1-10, John Wiley & Sons, Inc.). […] Here we describe the use of the [^35S]GTPγS binding assay using membranes from cells transfected with the human mGluR2 receptor and adapted from Schaffhauser et al. ((2003) Molecular Pharmacology 4:798-810) for the detection of the positive allosteric modulation (PAM) properties of the compounds of this invention.
CHO-cells were cultured to pre-confluence and stimulated with 5 mM butyrate for 24 h, prior to washing in PBS, and then collected by scraping in homogenisation buffer (50 mM Tris-HCl buffer, pH 7.4, 4° C.). Cell lysates were homogenized briefly using an ultra-turrax homogenizer. The homogenate was centrifuged at 16,000 RPM (Sorvall RC-5C plus rotor SS-34) for 10 minutes and the supernatant discarded. The pellet was resuspended in 5 mM Tris-HCl, pH 7.4 and centrifuged again (18,000 RPM, 20 min, 4° C.). The final pellet was resuspended in 50 mM Tris-HCl, pH 7.4 and stored at −80° C. in appropriate aliquots before use. Protein concentration was determined by the Bradford method (Bio-Rad, USA) with bovine serum albumin as standard.
Measurement of mGluR2 positive allosteric modulatory activity of test compounds was performed as follows. Test compounds and glutamate were diluted in assay buffer containing 10 mM HEPES acid, 10 mM HEPES salt, pH 7.4, 100 mM NaCl, 3 mM MgCl2 and 10 μM GDP. Human mGlu2 receptor-containing membranes were thawed on ice and diluted in assay buffer supplemented with 14 μg/ml saponin. Membranes were pre-incubated with compound alone or together with a predefined (˜EC20) concentration of glutamate (PAM assay) for 30 min at 30° C. After addition of [^35S]GTPγS (f.c. 0.1 nM) microplates were shaken briefly and further incubated to allow [^35S]GTPγS incorporation on activation (30 minutes, 30° C.). Final assay mixtures contained 7 μg of membrane protein in 10 mM HEPES acid, 10 mM HEPES salt, pH 7.4, 100 mM NaCl, 3 mM MgCl2, 10 µM GDP and 10 μg/ml saponin. Total reaction volume was 200 μl. Reactions were terminated by rapid filtration through Unifilter-96 GF/B filter plates (Packard, Meriden, Conn.) using a 96-well Packard filtermate harvester. Filters were washed 6 times with ice-cold 10 mM NaH2PO4/10 mM Na2HPO4, pH 7.4. Filters were then air-dried, and 40 μl of liquid scintillation cocktail (Microscint-O) was added to each well. Membrane-bound radioactivity was counted in a Microplate Scintillation and Luminescence Counter from Packard.
The concentration-response curves of representative compounds of the present invention-obtained in the presence of EC20 of mGluR2 agonist glutamate to determine positive allosteric modulation (PAM)—were generated using the Lexis software interface (developed at J&J).

T1 sequence (Q14416 19-872): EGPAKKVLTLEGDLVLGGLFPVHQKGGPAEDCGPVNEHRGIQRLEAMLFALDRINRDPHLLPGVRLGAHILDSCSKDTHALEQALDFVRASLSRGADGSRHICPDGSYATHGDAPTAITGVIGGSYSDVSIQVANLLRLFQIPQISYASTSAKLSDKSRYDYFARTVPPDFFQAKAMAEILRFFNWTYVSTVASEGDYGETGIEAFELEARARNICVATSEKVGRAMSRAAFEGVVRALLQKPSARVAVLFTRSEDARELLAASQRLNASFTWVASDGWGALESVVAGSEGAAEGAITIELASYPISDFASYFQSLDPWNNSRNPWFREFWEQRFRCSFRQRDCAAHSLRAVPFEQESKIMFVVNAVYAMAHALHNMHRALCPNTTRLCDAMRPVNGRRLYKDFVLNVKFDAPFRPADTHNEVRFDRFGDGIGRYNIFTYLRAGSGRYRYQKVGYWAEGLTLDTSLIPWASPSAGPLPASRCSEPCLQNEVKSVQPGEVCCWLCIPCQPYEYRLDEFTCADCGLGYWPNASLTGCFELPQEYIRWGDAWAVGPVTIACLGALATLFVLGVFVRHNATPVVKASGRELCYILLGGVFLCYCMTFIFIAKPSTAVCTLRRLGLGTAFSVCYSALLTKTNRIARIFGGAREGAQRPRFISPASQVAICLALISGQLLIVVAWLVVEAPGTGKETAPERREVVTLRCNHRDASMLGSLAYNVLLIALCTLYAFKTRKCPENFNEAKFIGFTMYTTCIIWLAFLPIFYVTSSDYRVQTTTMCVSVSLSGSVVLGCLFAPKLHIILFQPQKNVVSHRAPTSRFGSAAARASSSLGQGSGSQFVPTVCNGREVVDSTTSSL

GTPγS - hR2 PAM pEC50 | EC50 (read-out: GTPγS - hR2 PAM pEC50 (converted)) [nM] | SMILES
6.85 |  | FC(F)(F)Cc1nnc2c(Cl)c(N3CC4C(C3)C4c3ccccc3)ccn12 (racemic) [compound 81]
6.3 |  | Fc1ccccc1NC1CCN(c2ccn3c(CC4CC4)nnc3c2Cl)CC1 [compound 176]
7.87‡ |  | FC(F)(F)c1c(N2CCC(c3ccccc3Cl)CC2)ccn2c(CC3CC3)nnc12 [compound 287]
7.62 |  | CCCCc1nnc2c(C(F)(F)F)c(N3CCC(c4ccccc4)CC3)ccn12 [compound 4, 3-Butyl-7-(4-phenyl-1-piperidinyl)-8-trifluoromethyl-1,2,4-triazolo[4,3-a]pyridine]
7.67 |  | CC(C)(C)Cc1nnc2c(C(F)(F)F)c(N3CCC(c4ccccc4)CC3)ccn12 [compound 177]
7.71‡ |  | CCCCc1nnc2c(C(F)(F)F)c(N3CCC(c4ccc(F)cc4F)CC3)ccn12 [compound 327]
6.9‡ |  | Cc1cccnc1OC1CCN(c2ccn3c(CC4CC4)nnc3c2Cl)CC1 [compound 48]
6.25 |  | CC(C)OCc1nnc2c(Cl)c(N3CCC(c4ccccc4)(C(F)(F)F)CC3)ccn12 [compound 144]
6.12 |  | FC(F)(F)c1cc(CN2CCN(c3ccn4c(CC5CC5)nnc4c3Cl)CC2)cc(C(F)(F)F)c1 [compound 304]
6.13 |  | N#Cc1c(N2CCN(C3CCC(C(F)(F)F)CC3)CC2)ccn2c(CC(F)(F)F)nnc12 (centres unmarked) [compound 73]
 | 46.8 | N#Cc1c(N2CCC(c3ccccc3)CC2)ccn2c(CN3CCC(c4ccccc4)CC3)nnc12 [compound 12, 7-(4-phenyl-1-piperidinyl)-3-[(4-phenyl-1-piperidinyl)methyl]-1,2,4triazolo[4,3-a]pyridine-8-carbonitrile]
6.86 |  | CCCc1nnc2c(C(F)(F)F)c(N3CCC4(CC3)OCc3c(F)cccc34)ccn12 [compound 110]
6.68 |  | Fc1cccc(C2(C(F)(F)F)CCN(c3ccn4c(CC5CC5)nnc4c3Cl)CC2)c1 [compound 117]
6.51 |  | N#Cc1c(N2CCC(c3ccccc3)CC2)ccn2c(CN3CCC(C(F)(F)F)CC3)nnc12 [compound 37]
6.68 |  | FC(F)(F)c1c(N2CCN(CCc3ccccc3)CC2)ccn2c(CC3CC3)nnc12 [compound 216]
7.27 |  | FC(F)(F)c1c(N2CCC(F)(c3ccccc3)CC2)ccn2c(COCC3CC3)nnc12 [compound 80]
7.47 |  | FC(F)(F)c1c(N2CCC3(C=Cc4ccccc43)CC2)ccn2c(CC3CC3)nnc12 [compound 260]
6.53 |  | CCCc1nnc2c(C#N)c(N3CCC(c4ccccc4)CC3)ccn12 [compound 28]
7.13 |  | Cc1c(N2CCC3(CC2)OC(C)(C)c2ccccc23)ccn2c(CC3CC3)nnc12 [compound 154]
5.95‡ |  | N#Cc1c(N2CCC(c3ccccc3)CC2)ccn2c(CN3CCCC3)nnc12 [compound 36]
5.86 |  | FC1(F)CCN(C2CCN(c3ccn4c(CC5CC5)nnc4c3Cl)CC2)CC1 [compound 242]

The remaining lines, values behind:

SMILES | GTPγS - hR2 PAM pEC50 | EC50 (read-out: GTPγS - hR2 PAM pEC50 (converted)) [nM]
FC(F)(F)c1c(N2CCc3ccccc3C2)ccn2c(CC3CC3)nnc12 [compound 118] | 6.83 | 
CCc1nnc2c(C)c(N3CC4C(C3)C4c3ccccc3)ccn12 (racemic) [compound 335] | 6.42‡ | 
CC1CN(c2ccn3c(CC4CC4)nnc3c2Cl)CCC1c1ccccc1 (centres unmarked) [compound 168] | 7.22 | 
CCOCc1nnc2c(C(F)(F)F)c(N3CCC(c4ccc(F)cc4F)CC3)ccn12.Cl [compound 339] | 7.15‡ | 
CCOCc1nnc2c(C(F)(F)F)c(N3CCC(F)(c4ccccc4)CC3)ccn12 [compound 141] | 6.95 | 
FC(F)(F)c1c(N2CCC(Nc3ccccc3)CC2)ccn2c(CC3CC3)nnc12 [compound 175] | 6.33 | 
CCCc1nnc2c(C(F)(F)F)c(N3CCC(c4ccccc4)CC3)ccn12 [compound 67] | 7.36 | 
Cc1cccnc1OC1CCN(c2ccn3c(CC(F)(F)F)nnc3c2Cl)CC1 [compound 59] | 7.17 | 
N#Cc1c(N2CCC(c3ccccc3)CC2)ccn2c(C3(C(F)(F)F)CC3)nnc12 [compound 31] | 6.27 | 
N#Cc1c(N2CCN(Cc3ccc(OCC4CC4)c(Cl)c3)CC2)ccn2c(CC(F)(F)F)nnc12 [compound 52] | 6.98‡ | 
FC(F)(F)C(c1ccccc1)N1CCN(c2ccn3c(CC4CC4)nnc3c2Cl)CC1 (centres unmarked) [compound 163] | 6.97‡ | 
Clc1c(N2CCC(c3ccccc3)C2)ccn2c(CC3CC3)nnc12 (centres unmarked) [compound 173] | 6.32‡ | 
COCc1nnc2c(C#N)c(N3CCC(c4ccccc4)CC3)ccn12 [compound 24] | 6.33‡ | 
CCCc1nnc2c(Cl)c(N3CCC4(CC3)OCc3ccccc34)ccn12 [compound 93] | 6.53 | 
CCOCc1nnc2c(Cl)c(N3CCC(c4c(OC)ccc(F)c4F)CC3)ccn12 [compound 84] | 7.86 | 
Fc1ccc(CN2CCN(c3ccn4c(CC5CC5)nnc4c3Cl)CC2)c(F)c1 [compound 215] | 5.6‡ | 
CC(C)(C)c1nnc2c(C#N)c(N3CCC(c4ccccc4)CC3)ccn12 [compound 35] | 5.91 | 
COc1cccc(F)c1C1CCN(c2ccn3c(CC4CC4)nnc3c2Cl)CC1 [compound 55] | 8.22 | 

SMILES | GTPγS - hR2 PAM pEC50 | EC50 (read-out: GTPγS - hR2 PAM pEC50 (converted)) [nM]
Fc1cc(F)cc(N2CCN(c3ccn4c(CC5CC5)nnc4c3C(F)(F)F)CC2)c1 [compound 351] | 7.46‡ | 
CC1CN(c2ccn3c(CC4CC4)nnc3c2C(F)(F)F)CCC1c1ccccc1 (single isomer, unassigned) [compound 212] | 8.08 | 
Fc1ccc(N2CCCC3(C2)CN(c2ccn4c(CC5CC5)nnc4c2C(F)(F)F)C3)c(F)c1 [compound 188] | 8‡ | 
CC1CN(c2ccn3c(CC4CC4)nnc3c2Cl)CCC1c1ccccc1 (single isomer, unassigned) [compound 211] | 7.44 | 
CCOCc1nnc2c(C(F)(F)F)c(N3CCC(Oc4ncccc4C)CC3)ccn12 [compound 134] | 7.17 | 
COc1cccc(F)c1N1CCN(c2ccn3c(CC4CC4)nnc3c2Cl)CC1 [compound 302] | 6.55 | 
CC1(C)OC2(CCN(c3ccn4c(CC5CC5)nnc4c3Cl)CC2)c2ccccc21 [compound 104] | 7.7 | 
FC(F)(F)c1cccc(CN2CCN(c3ccn4c(CC5CC5)nnc4c3Cl)CC2)c1 [compound 218] | 6.05‡ | 
Fc1ccc(NC2CCN(c3ccn4c(CC5CC5)nnc4c3C(F)(F)F)CC2)c(F)c1 [compound 203] | 6.73 | 
CC1(C)CN(c2ccn3c(CC4CC4)nnc3c2C(F)(F)F)CCN1c1cc(F)cc(F)c1 [compound 233] | 7.23 | 
FC(F)(F)c1c(N2CCC3(CC2)OCc2ccccc23)ccn2c(CC3CC3)nnc12 [compound 77] | 7.68‡ | 
FC(F)(F)c1c(N2CCC3(CC2)COc2ccccc2O3)ccn2c(CC3CC3)nnc12 [compound 79] | 7.28 | 
Clc1c(N2CCC(c3ccccc3)CC2)ccn2c(CCC3CC3)nnc12 [compound 146] | 7.02 | 
FC(F)(F)Cc1nnc2c(Cl)c(N3CCC(c4ccccn4)CC3)ccn12 [compound 56] | 6.02‡ | 
Fc1ccc(CN2CCN(c3ccn4c(CC5CC5)nnc4c3C(F)(F)F)CC2)c(F)c1 [compound 227] | 6.31‡ | 
Fc1ccccc1NC1CN(c2ccn3c(CC4CC4)nnc3c2C(F)(F)F)C1 [compound 189] | 6.4 | 
CC1(C)CN(c2ccn3c(CC4CC4)nnc3c2Cl)CCN1c1ccccc1 [compound 105] | 6.17‡ | 
